≈ marks a conversion by molar mass, not a printed value. Read-outs that look alike come from different tables or passages of the source.
How the values were obtained:
Mtb H37Ra = assay: Microdilution broth resazurin assay, MIC; format: cell-based, Mycobacterium tuberculosis
M. kansasii = assay: Microplate Alamar Blue assay, MIC; format: cell-based, Mycobacterium kansasii; details: for MIC: Mycobacterium kansasii, read-out: Antimycobacterial Activity MIC M. kans.
M. avium = assay: Microdilution broth resazurin assay, MIC; format: cell-based, Mycobacterium avium
M. smegmatis = assay: Microdilution broth resazurin assay, MIC; format: cell-based, Mycolicibacterium smegmatis
M. aurum = assay: Microdilution broth resazurin assay, MIC; format: cell-based, Mycolicibacterium aurum
Mtb H37Rv = assay: Microplate Alamar Blue assay, MIC; format: cell-based, Mycobacterium tuberculosis; details: for MIC: Mycobacterium tuberculosis, H37RV
[1] = Mycobacterium tuberculosis, H37RA, read-out: Antimycobacterial Activity MIC Mtb H37Ra
[2] = Mycobacterium tuberculosis, H37RA; internal quality controls (standards); read-out: MINIMUM INHIBITORY CONCENTRATION Mycobacterium tuberculosis H37Ra
[3] = Mycobacterium avium, DSM44156; internal quality controls (standards); read-out: MINIMUM INHIBITORY CONCENTRATION Mycobacterium avium DSM 44156
[4] = Mycobacterium avium; read-out: Antimycobacterial Activity MIC M. avium
[5] = Mycolicibacterium smegmatis, DSM43465; internal quality controls (standards); read-out: MINIMUM INHIBITORY CONCENTRATION Mycolicibacterium smegmatis DSM 43465
[6] = Mycolicibacterium smegmatis; read-out: Antimycobacterial Activity MIC M. smeg.
[7] = Mycolicibacterium aurum, DSM43999; internal quality controls (standards); read-out: MINIMUM INHIBITORY CONCENTRATION Mycolicibacterium aurum DSM 43999
[8] = Mycolicibacterium aurum; read-out: Antimycobacterial Activity MIC M. aurum
[9] = Table S5 matching pairs series A and B
[10] = Microplate Alamar Blue assay, read-out: Antimycobacterial Activity MIC Mtb H37Rv
[11] = read-out: Antimycobacterial Activity MIC Mtb H37Rv, Table S5 matching pairs series A and B
[12] = Mycobacterium avium, read-out: Antimycobacterial Activity MIC M. avium
[13] = Mycolicibacterium aurum, read-out: Antimycobacterial Activity MIC M. aurum
[14] = Mycobacterium tuberculosis, H37RA; read-out: Antimycobacterial Activity MIC Mtb H37Ra
[15] = Mycolicibacterium smegmatis, read-out: Antimycobacterial Activity MIC M. smeg.

| SMILES | MIC (Mtb H37Ra; [1]) [µg/mL] | MIC (M. kansasii) [µg/mL] | MIC (M. avium; [4]) [µg/mL] | MIC (M. smegmatis; [6]) [µg/mL] | MIC (M. aurum; [8]) [µg/mL] | Antimycobacterial Activity MIC Mtb H37Ra (Mtb H37Ra) [µg/mL] | Antimycobacterial Activity MIC M. avium (M. avium) [µg/mL] | Antimycobacterial Activity MIC M. avium (M. avium; [9]) [µg/mL] | Antimycobacterial Activity MIC M. smeg. (M. smegmatis) [µg/mL] | Antimycobacterial Activity MIC M. smeg. (M. smegmatis; [9]) [µg/mL] | Antimycobacterial Activity MIC M. aurum (M. aurum) [µg/mL] | MIC (Mtb H37Rv; [10]) [µg/mL] | MIC (Mtb H37Rv; [11]) [µg/mL] | MIC (M. aurum; [13]) [µg/mL] | also measured |
| --- | --- | --- | --- | --- | --- | --- | --- | --- | --- | --- | --- | --- | --- | --- | --- |
| O=C(O)c1cn(C2CC2)c2cc(N3CCNCC3)c(F)cc2c1=O [CIP, ciprofloxacin, reference compound] | 0.25 (≈ 0.754 µM) | 0.25 (≈ 0.754 µM) | 1.56 (≈ 4.71 µM) | 0.125 (≈ 0.377 µM) | 0.0156 (≈ 0.0472 µM) |  |  |  |  |  |  |  |  |  | MIC (Mtb H37Ra; [2]): 0.125 to 0.25 µg/mL (≈ 0.377 to 0.754 µM); MIC (M. avium; [3]): 0.5 µg/mL (≈ 1.51 µM); MIC (M. smegmatis; [5]): 0.0625 to 0.125 µg/mL (≈ 0.189 to 0.377 µM); MIC (M. aurum; [7]): 0.0078 to 0.0156 µg/mL (≈ 0.0235 to 0.0471 µM) |
| COc1ccc(Cn2c(C)nc3ccccc3c2=O)c(OC)c1 [Compound 1] |  |  |  |  |  | ≥500 | ≥500 | ≥ 500 | ≥500 | ≥ 500 | ≥500 |  |  |  | Antimycobacterial Activity MIC Mtb H37Rv (Mtb H37Rv; Microplate Alamar Blue assay): >100 µg/mL; Antimycobacterial Activity MIC Mtb H37Ra (Mtb H37Ra; [9]): ≥ 500 µg/mL; Antimycobacterial Activity MIC M. kans. (M. kansasii): >100 µg/mL; Antimycobacterial Activity MIC M. aurum (M. aurum; [9]): ≥ 500 µg/mL |
| Cc1nc2ccccc2c(=O)n1Cc1cccc(F)c1 [Compound 4] |  |  |  |  |  | 250 | 125 |  | 250 |  | 500 |  |  |  | Antimycobacterial Activity MIC Mtb H37Rv (Mtb H37Rv; Microplate Alamar Blue assay): 100 µg/mL; Antimycobacterial Activity MIC M. kans. (M. kansasii): 50 µg/mL |
| Cc1nc2ccccc2c(=O)n1Cc1ccc(C(F)(F)F)cc1 [Compound 7] |  |  |  |  |  | 62.5 | 125 | 125 | 250 | 250 | 125 |  |  |  | Antimycobacterial Activity MIC Mtb H37Rv (Mtb H37Rv; Microplate Alamar Blue assay): >100 µg/mL; Antimycobacterial Activity MIC Mtb H37Ra (Mtb H37Ra; [9]): 62.5 µg/mL; Antimycobacterial Activity MIC M. kans. (M. kansasii): >100 µg/mL; Antimycobacterial Activity MIC M. aurum (M. aurum; [9]): 125 µg/mL |
| Cc1nc2ccccc2c(=O)n1Cc1ccc2ccccc2c1 [Compound 8] | ≥ 250 | 50 (≈ 166 µM) |  | ≥ 500 |  | ≥250 | 62.5 |  |  | ≥ 500 | 62.5 | > 100 | > 100 | 62.5 (≈ 208 µM) | Antimycobacterial Activity MIC M. kans. (M. kansasii; [9]): 50 µg/mL; MIC (M. avium; [12]): 62.5 µg/mL (≈ 208 µM) |
| Cc1nc2ccccc2c(=O)n1Cc1cc(F)cc(C(F)(F)F)c1 [Compound 9] |  |  |  |  |  | 125 | 62.5 |  | ≥500 |  | 62.5 |  |  |  | Antimycobacterial Activity MIC Mtb H37Rv (Mtb H37Rv; Microplate Alamar Blue assay): >100 µg/mL; Antimycobacterial Activity MIC M. kans. (M. kansasii): >100 µg/mL |
| Cc1nc2ccccc2c(=O)n1Cc1ccc(Cl)cc1Cl [Compound 10] |  |  |  |  |  | ≥250 | ≥250 |  | ≥250 |  | ≥250 |  |  |  | Antimycobacterial Activity MIC Mtb H37Rv (Mtb H37Rv; Microplate Alamar Blue assay): >100 µg/mL; Antimycobacterial Activity MIC M. kans. (M. kansasii): >100 µg/mL |
| CC1Nc2ccccc2C(=O)N1Cc1ccc(Cl)c(Cl)c1 (stereo not shown) [Compound 11] | ≥ 250 | > 100 | ≥ 250 | ≥ 250 | ≥ 250 | ≥250 |  | ≥ 250 |  | ≥ 250 |  | > 100 | > 100 |  | Antimycobacterial Activity MIC M. aurum (M. aurum; [9]): ≥ 250 µg/mL |
| Cc1nc2cc(Cl)ccc2c(=O)n1Cc1cccc(C(=O)O)c1 [Compound 12] |  | > 100 |  |  |  |  |  |  |  |  |  | > 100 |  | ≥ 62.5 | MIC (Mtb H37Ra; [14]): ≥ 62.5 µg/mL; MIC (M. avium; [12]): ≥ 62.5 µg/mL; MIC (M. smegmatis; [15]): ≥ 62.5 µg/mL |
| Cc1nc2cc(Cl)ccc2c(=O)n1Cc1cccc(O)c1 [Compound 13] |  | > 100 | 62.5 (≈ 208 µM) |  |  |  |  |  |  |  |  | 50 (≈ 166 µM) |  | ≥ 62.5 | MIC (Mtb H37Ra; [14]): ≥ 62.5 µg/mL; MIC (M. smegmatis; [15]): ≥ 62.5 µg/mL |
| Cc1nc2cc(Cl)ccc2c(=O)n1Cc1ccc(O)cc1 [Compound 14] |  | > 100 |  |  |  |  |  |  |  |  |  | > 100 |  | 62.5 (≈ 208 µM) | MIC (Mtb H37Ra; [14]): 62.5 µg/mL (≈ 208 µM); MIC (M. avium; [12]): 62.5 µg/mL (≈ 208 µM); MIC (M. smegmatis; [15]): 62.5 µg/mL (≈ 208 µM) |
| COc1ccc(Cn2c(C)nc3cc(Cl)ccc3c2=O)c(OC)c1 [Compound 15] | ≥ 125 | > 100 |  |  |  | ≥125 | ≥125 |  | ≥125 |  | ≥125 | > 100 | > 100 | ≥ 125 | MIC (M. avium; [12]): ≥ 125 µg/mL; MIC (M. smegmatis; [15]): ≥ 125 µg/mL |
| COc1cccc(Cn2c(C)nc3cc(Cl)ccc3c2=O)c1 [Compound 16] | 62.5 (≈ 199 µM) | > 100 | ≥ 500 |  |  | 62.5 |  | ≥ 500 | ≥125 |  | ≥125 | > 100 | > 100 | ≥ 125 | MIC (M. smegmatis; [15]): ≥ 125 µg/mL |
| Cc1nc2cc(Cl)ccc2c(=O)n1Cc1ccccc1F [Compound 18] |  | > 100 | ≥ 500 | ≥ 500 | ≥ 500 |  |  |  |  |  |  | > 100 |  |  | MIC (Mtb H37Ra; [14]): ≥ 500 µg/mL |
| Cc1ccccc1Cn1c(C)nc2cc(Cl)ccc2c1=O [Compound 20] | ≥ 250 | > 100 | ≥ 250 | ≥ 250 | ≥ 250 | ≥250 |  | ≥ 250 |  | ≥ 250 |  | > 100 | > 100 |  | Antimycobacterial Activity MIC M. aurum (M. aurum; [9]): ≥ 250 µg/mL |
| Cc1nc2cc(Cl)ccc2c(=O)n1Cc1ccc(C(F)(F)F)cc1 [Compound 22] | 31.2 (≈ 88.6 µM) | 25 (≈ 70.9 µM) | ≥ 500 | ≥ 500 | ≥ 500 | 31.25 |  | ≥ 500 |  | ≥ 500 |  | > 100 | > 100 |  | Antimycobacterial Activity MIC M. kans. (M. kansasii; [9]): 25 µg/mL; Antimycobacterial Activity MIC M. aurum (M. aurum; [9]): ≥ 500 µg/mL |
| CO[C@H]1/C=C/O[C@@]2(C)Oc3c(C)c(O)c4c(O)c(c(/C=N/N5CCN(C)CC5)c(O)c4c3C2=O)NC(=O)/C(C)=C\C=C\[C@H](C)[C@H](O)[C@@H](C)[C@@H](O)[C@@H](C)[C@H](OC(C)=O)[C@@H]1C [RIF, rifampicin] |  | 0.025 (≈ 0.0304 µM) | 0.125 (≈ 0.152 µM) | 12.5 (≈ 15.2 µM) | 0.39 (≈ 0.474 µM) |  |  |  |  |  |  |  |  |  | MIC (Mtb H37Ra; [2]): 0.00156 to 0.0031 µg/mL (≈ 0.0019 to 0.00377 µM); MIC (Mtb H37Ra; [14]): 0.00156 µg/mL (≈ 0.0019 µM); MIC (M. avium; [3]): 0.0625 to 0.125 µg/mL (≈ 0.0759 to 0.152 µM); MIC (M. smegmatis; [5]): 12.5 to 25 µg/mL (≈ 15.2 to 30.4 µM); MIC (M. aurum; [7]): 0.39 to 0.78 µg/mL (≈ 0.474 to 0.948 µM) |
